Source: US9469613B2, “(N-(cyanomethyl)-4-(2-(4-morpholinophenylamino)pyrimidin-4-yl)benzamide” (Gilead Sciences, Inc., priority 2014, dated 2016)
Structures can show the parent of a compound that is named as a salt.

How the values were obtained:
[1] = Relative bioavailability of CYT-0387 tablet vs capsule, food and omeprazole effect, healthy subjects; type: in vivo, human; conditions: from 100 to 800 mg
Procedure: CYT-0387 is a selective small molecule inhibitor of Janus kinase 1 and 2 (JAK1/JAK2), and is currently under investigation to treat myelofibrosis. In a Phase 1/2 study in myelofibrosis patients, 300 mg CYT-0387 capsule once daily was selected as Phase 3 dose based on a favorable benefit:risk profile. An immediate release tablet formulation (CYT-0387 tablet) was developed for further clinical evaluation. The relative bioavailability of CYT-0387 tablet vs capsule was evaluated in this study to identify Phase 3 dose of CYT-0387 tablet. CYT-0387 tablet (100 to 300 mg) vs capsule (300 mg) pharmacokinetics (PK) after a single dose was evaluated in healthy subjects. CYT-0387 tablet PK at supratherapeutic doses (400 and 800 mg), under fed and fasted conditions, and with an acid reducing agent (i.e., omeprazole) was also evaluated. Intensive PK sampling occurred up to 36 hours postdose. Safety was monitored throughout the study. A parametric analysis of variance (ANOVA) using a mixed-effects model was used to fit to the natural logarithmic transformation of PK parameters (AUC and Cmax). The 90% confidence intervals were constructed for the ratio of geometric means of CYT-0387 tablet PK at 100, 150, 200 and 300 mg vs CYT-0387 capsule 300 mg, using equivalence bounds of 70% to 143% for AUC and Cmax. A similar approach was used to assess the effect of food and omeprazole.

TGFBR1 = TGFBR1 (Homo sapiens (Human), UniProt P36897); assay: Biochemical binding assay (DiscoveRx)
Sequence of TGFBR1 (P36897 34-503): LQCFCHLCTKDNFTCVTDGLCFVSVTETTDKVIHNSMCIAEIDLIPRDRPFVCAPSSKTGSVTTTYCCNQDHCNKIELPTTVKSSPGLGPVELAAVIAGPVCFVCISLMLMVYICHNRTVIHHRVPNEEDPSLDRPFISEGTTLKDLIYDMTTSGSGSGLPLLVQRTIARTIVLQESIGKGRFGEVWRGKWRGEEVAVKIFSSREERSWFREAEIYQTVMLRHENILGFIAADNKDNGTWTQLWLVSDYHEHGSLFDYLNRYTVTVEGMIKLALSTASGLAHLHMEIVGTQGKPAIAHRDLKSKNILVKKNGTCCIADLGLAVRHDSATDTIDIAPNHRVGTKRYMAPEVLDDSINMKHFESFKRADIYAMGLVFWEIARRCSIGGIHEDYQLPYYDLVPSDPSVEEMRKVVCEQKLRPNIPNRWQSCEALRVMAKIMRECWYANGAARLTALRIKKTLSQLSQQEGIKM

ALK2 (Acvr1) [2] = molecular target: T1, ALK2 (Acvr1) (Homo sapiens (Human), UniProt Q04771); assay: In vitro enzyme inhibition assay (LanthaScreen); type: biochemical; conditions: n = 3
T1 sequence (Q04771 21-509): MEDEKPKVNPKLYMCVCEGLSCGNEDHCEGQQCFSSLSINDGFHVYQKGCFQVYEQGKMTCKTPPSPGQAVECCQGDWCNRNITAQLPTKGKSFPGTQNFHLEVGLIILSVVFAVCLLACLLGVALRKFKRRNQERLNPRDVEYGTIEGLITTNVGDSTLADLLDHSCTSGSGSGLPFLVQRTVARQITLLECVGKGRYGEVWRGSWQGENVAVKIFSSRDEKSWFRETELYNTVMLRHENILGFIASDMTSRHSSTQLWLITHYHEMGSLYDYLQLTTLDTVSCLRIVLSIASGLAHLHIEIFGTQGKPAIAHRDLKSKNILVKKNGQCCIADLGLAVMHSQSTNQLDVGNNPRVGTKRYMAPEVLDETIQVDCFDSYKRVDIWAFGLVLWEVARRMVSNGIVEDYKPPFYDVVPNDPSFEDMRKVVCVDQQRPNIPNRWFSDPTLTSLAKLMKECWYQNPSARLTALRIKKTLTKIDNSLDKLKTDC
Procedure: (§1) In addition, biochemical binding assays (DiscoveRx) and in vitro enzyme inhibition assays (LanthaScreen, Life Technologies) were conducted to determine the binding affinity and inhibition activities of CYT-0387 to Type-I BMPR-kinases (ALK2, ALK3, and ALK6) were conducted. Transforming growth factor beta receptor 1 (TGFBR1, ALK5) was used as a control to determine the selectivity to Type-I BMPR-kinases.

ALK6 (BMPR1B) = ALK6 (BMPR1B) (Homo sapiens (Human), UniProt O00238); assay: In vitro enzyme inhibition assay (LanthaScreen); type: biochemical; conditions: n = 3
Sequence of ALK6 (BMPR1B) (O00238 14-502): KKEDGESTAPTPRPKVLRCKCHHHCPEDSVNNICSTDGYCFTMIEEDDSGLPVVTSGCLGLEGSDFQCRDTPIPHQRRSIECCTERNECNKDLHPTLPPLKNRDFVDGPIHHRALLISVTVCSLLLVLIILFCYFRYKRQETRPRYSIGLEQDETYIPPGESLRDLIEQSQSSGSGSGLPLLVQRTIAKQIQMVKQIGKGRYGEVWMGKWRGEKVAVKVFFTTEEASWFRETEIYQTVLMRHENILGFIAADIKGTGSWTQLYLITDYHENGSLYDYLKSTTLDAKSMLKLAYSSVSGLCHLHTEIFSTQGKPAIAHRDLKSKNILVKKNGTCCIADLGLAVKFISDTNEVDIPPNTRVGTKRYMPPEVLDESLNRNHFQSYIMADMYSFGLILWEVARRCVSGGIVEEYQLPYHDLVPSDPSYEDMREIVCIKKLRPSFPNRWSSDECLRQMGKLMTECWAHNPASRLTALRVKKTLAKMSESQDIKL
Procedure: as §1

ALK3 (BMPR1a) [3] = molecular target: T2, ALK3 (BMPR1a) (Homo sapiens (Human), UniProt P36894); assay: In vitro enzyme inhibition assay (LanthaScreen); type: biochemical; conditions: n = 3
T2 sequence (P36894 24-532): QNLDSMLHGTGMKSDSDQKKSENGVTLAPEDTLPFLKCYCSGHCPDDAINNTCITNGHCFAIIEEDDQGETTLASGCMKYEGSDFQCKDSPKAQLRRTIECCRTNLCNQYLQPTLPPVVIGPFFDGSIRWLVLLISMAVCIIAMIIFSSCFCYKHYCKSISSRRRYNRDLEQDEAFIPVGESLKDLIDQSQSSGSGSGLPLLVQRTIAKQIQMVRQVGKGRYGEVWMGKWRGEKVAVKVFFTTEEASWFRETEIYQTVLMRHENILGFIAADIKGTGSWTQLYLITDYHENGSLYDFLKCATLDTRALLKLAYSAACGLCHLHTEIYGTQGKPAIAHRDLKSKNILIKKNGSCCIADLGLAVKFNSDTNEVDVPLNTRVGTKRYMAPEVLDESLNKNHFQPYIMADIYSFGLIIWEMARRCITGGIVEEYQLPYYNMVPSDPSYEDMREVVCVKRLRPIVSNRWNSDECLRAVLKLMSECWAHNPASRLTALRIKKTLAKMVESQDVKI
Procedure: as §1

ALK2 (Acvr1) [4] = molecular target: T1, ALK2 (Acvr1); assay: Biochemical binding assay (DiscoveRx)
Procedure: as §1

ALK3 (BMPR1a) [5] = molecular target: T2, ALK3 (BMPR1a); assay: Biochemical binding assay (DiscoveRx)
Procedure: as §1

[6] = system: phospho-SMAD1/5/8 in HepG2 cells; assay: BMP6-mediated phospho-SMAD1/5/8 levels in HepG2 cells (immunoblot); type: cell-based; conditions: for phospho-SMAD1/5/8 levels (normalized percentage): HepG2, 10 ng/mL BMP6 30 minutes, 100% = vehicle
Procedure: HepG2 cells were preincubated for 2 hours with increasing concentrations of CYT-0387 (0.02 to 10 μM CYT387) in the presence of 1% FBS and then stimulated for 30 minutes with 10 ng/mL of BMP6. Protein was extracted from the lysed cells and analyzed using immunoblot analysis with the antibodies specific for phospho-SMAD1 (Ser463/465), phospho-SMAD5 (Ser463/465) and phospho-SMAD8 (Ser465/467) and β-actin. Raw phospho-SMAD1/5/8 levels were quantified using densitometry software (Image Studio) and normalized to β-actin levels. The percentage of phospho-SMAD1/5/8 levels was calculated (100% is equal to phospho-SMAD1/5/8 levels in vehicle treated cells stimulated with 10 ng/mL of BMP6) and summarized in Table 9.

[7] = Effects of antioxidants on degradation of CYT-0387 Form II in aqueous solution (HPLC); type: physicochemical
Procedure: This was determined from the study that investigated the potential effects of different antioxidants in inhibiting or preventing degradation of CYT-0387 dihydrochloride monohydrate Form II. In the initial study, five antioxidants of three different mechanisms of action were examined: free radical scavenger antioxidants (propyl gallate, butylated hydroxyanisole (BHA), and butylated hydroxytoluene (BHT)), a sacrificial reductant (ascorbic acid), and an oxygen scavenger (sodium metabisulfite).
Aqueous solutions containing 20 μg/mL of CYT-0387 dihydrochlorid monohydrate Form II in 70% (v/v) 50 mM acetate buffer (pH 4.0) and 30% (v/v) methanol were incubated in absence (which was used as control) and presence of 0.1% (w/v) antioxidant at 60° C. for up to 7 days. At Day 0, 5 and 7, the solution was analyzed using a reverse-phase HPLC with a Zorbax SB-C8 column ([…].). […] While total degradation products could not be determined for 0.1% ascorbic acid due to interference, the main oxidative degradation products were not observed (data not shown).
In additional studies, the effects of the lower concentrations of 0.01% and 0.001% (w/v) of propyl gallate, BHA, and ascorbic acid on the stability of CYT-0387 were examined under the same condition. […] Moreover, at 0.001% (w/v) antioxidant level, the presence of propyl gallate decreased or inhibited the degradation of CYT-0387 relative to BHA and ascorbic acid (Table 7).

With N#CCNC(=O)c1ccc(-c2ccnc(Nc3ccc(N4CCOCC4)cc3)n2)cc1 [CYT-0387, N-(cyanomethyl)-4-(2-(4-morpholinophenylamino)pyrimidin-4-yl)benzamide] the “dose proportionality of plasma exposures” value [1] was “less-than-dose-proportionally”, the Kd (TGFBR1) was 670 nM and the IC50 (ALK2 (Acvr1) [2]) was 8 nM. It also gave an IC50 (ALK6 (BMPR1B)) of 107 nM, an IC50 (ALK3 (BMPR1a) [3]) of 405 nM and a Kd (ALK2 (Acvr1) [4]) of 25 nM. For the same compound, the Kd (ALK3 (BMPR1a) [5]) was 1000 nM, the “phospho-SMAD1/5/8 levels (normalized percentage)” value ([6]; 0.020 μM) was 83% and the “phospho-SMAD1/5/8 levels (normalized percentage)” value ([6]; 0.039 μM) was 80%. The “phospho-SMAD1/5/8 levels (normalized percentage)” value ([6]; 0.078 μM) was 91%, the “phospho-SMAD1/5/8 levels (normalized percentage)” value ([6]; 0.156 μM) was 96% and the “phospho-SMAD1/5/8 levels (normalized percentage)” value ([6]; 0.313 μM) was 88%. For the same compound, the “phospho-SMAD1/5/8 levels (normalized percentage)” value ([6]; 0.625 μM) was 91%, the “phospho-SMAD1/5/8 levels (normalized percentage)” value ([6]; 1.25 μM) was 65% and the “phospho-SMAD1/5/8 levels (normalized percentage)” value ([6]; 2.5 μM) was 52%. The “phospho-SMAD1/5/8 levels (normalized percentage)” value ([6]; 5.0 μM) was 40%, the “phospho-SMAD1/5/8 levels (normalized percentage)” value ([6]; 10.0 μM) was 31% and the “effect on BMP6-mediated phospho-SMAD1/5/8 levels” value ([6]; 0.02 to 10 μM, HepG2) was “dose-dependent inhibition”.
In the case of N#CCNC(=O)c1ccc(-c2ccnc(Nc3ccc(N4CCOCC4)cc3)n2)cc1 [CYT-0387 Form II, N-(cyanomethyl)-4-(2-(4-morpholinophenylamino)pyrimidin-4-yl)benzamide dihydrochloride monohydrate Form II], the “main oxidative degradation products” value ([7]; 0.1% ascorbic acid, 60° C. (data not shown)) is reported as “not observed”, the amount degraded ([7]; in the presence of 0.1% (w/v) propyl gallate or BHA, 60° C., up to 7 days) is reported as “Less than one percent” and the “Total Degradation” value ([7]; pH 4 aqueous buffer, 60° C., control, no antioxidant, day 0) is reported as 0.29%. For the same compound, the “Total Degradation” value ([7]; pH 4 aqueous buffer, 60° C., control, no antioxidant, day 5) was 17.24%, the “Total Degradation” value ([7]; pH 4 aqueous buffer, 60° C., control, no antioxidant, day 7) was 21.84% and the “Total Degradation” value ([7]; pH 4 buffer, 60° C., BHA 0.001% w/v, day 0) was 0.30%. The “Total Degradation” value ([7]; pH 4 buffer, 60° C., BHA 0.001% w/v, day 5) was 7.64%, the “Total Degradation” value ([7]; pH 4 buffer, 60° C., BHA 0.001% w/v, day 7) was 13.76% and the “Total Degradation” value ([7]; pH 4 buffer, 60° C., BHA 0.01% w/v, day 0) was 0.55%. The “Total Degradation” value ([7]; pH 4 buffer, 60° C., BHA 0.01% w/v, day 5) was 1.75%, the “Total Degradation” value ([7]; pH 4 buffer, 60° C., BHA 0.01% w/v, day 7) was 3.04% and the “Total Degradation” value ([7]; pH 4 buffer, 60° C., BHA 0.1% w/v, day 0) was 0.45%. For the same compound, the “Total Degradation” value ([7]; pH 4 buffer, 60° C., BHA 0.1% w/v, day 5) was 0.50%, the “Total Degradation” value ([7]; pH 4 buffer, 60° C., BHA 0.1% w/v, day 7) was 1.24% and the “Total Degradation” value ([7]; pH 4 buffer, 60° C., BHT 0.1% w/v, day 0) was 0.06%. The “Total Degradation” value ([7]; pH 4 buffer, 60° C., BHT 0.1% w/v, day 5) was 1.71%, the “Total Degradation” value ([7]; pH 4 buffer, 60° C., BHT 0.1% w/v, day 7) was 4.35% and the “Total Degradation” value ([7]; pH 4 buffer, 60° C., ascorbic acid 0.001% w/v, day 0) was 0.51%. The “Total Degradation” value ([7]; pH 4 buffer, 60° C., ascorbic acid 0.001% w/v, day 5) was 17.95%, the “Total Degradation” value ([7]; pH 4 buffer, 60° C., ascorbic acid 0.001% w/v, day 7) was 21.28% and the “Total Degradation” value ([7]; pH 4 buffer, 60° C., ascorbic acid 0.01% w/v, day 0) was 0.20%. For the same compound, the “Total Degradation” value ([7]; pH 4 buffer, 60° C., ascorbic acid 0.01% w/v, day 5) was 1.58%, the “Total Degradation” value ([7]; pH 4 buffer, 60° C., ascorbic acid 0.01% w/v, day 7) was 1.78% and the “Total Degradation” value ([7]; pH 4 buffer, 60° C., propyl gallate 0.001% w/v, day 0) was 0.22%. The “Total Degradation” value ([7]; pH 4 buffer, 60° C., propyl gallate 0.001% w/v, day 5) was 1.98%, the “Total Degradation” value ([7]; pH 4 buffer, 60° C., propyl gallate 0.001% w/v, day 7) was 4.32% and the “Total Degradation” value ([7]; pH 4 buffer, 60° C., propyl gallate 0.01% w/v, day 0) was 0.22%. For the same compound, the “Total Degradation” value ([7]; pH 4 buffer, 60° C., propyl gallate 0.01% w/v, day 5) was 0.38%, the “Total Degradation” value ([7]; pH 4 buffer, 60° C., propyl gallate 0.01% w/v, day 7) was 0.72% and the “Total Degradation” value ([7]; pH 4 buffer, 60° C., propyl gallate 0.1% w/v, day 0) was 0.29%. The “Total Degradation” value ([7]; pH 4 buffer, 60° C., propyl gallate 0.1% w/v, day 5) was 0.31%, the “Total Degradation” value ([7]; pH 4 buffer, 60° C., propyl gallate 0.1% w/v, day 7) was 0.32% and the “Total Degradation” value ([7]; pH 4 buffer, 60° C., sodium metabisulfite 0.1% w/v, day 0) was 0.33%. For the same compound, the “Total Degradation” value ([7]; pH 4 buffer, 60° C., sodium metabisulfite 0.1% w/v, day 5) was 43.83% and the “Total Degradation” value ([7]; pH 4 buffer, 60° C., sodium metabisulfite 0.1% w/v, day 7) was 46.31%.
